Laboratory results as given in ChEMBL document CHEMBL1201862, “PubChem BioAssay data set” (2004).
Calls of active or inactive are those of the source.

How the values were obtained:
Trypsin = Trypsin (Sus scrofa, UniProt P00761); assay: porcine trypsin inhibitors, dose response, selectivity assay for Rce1 protease inhibitor project, biochemical, quenched peptide fluorescence, cherry-pick (AID 488789)
CAAX prenyl protease 2 [1] = target: T1, CAAX prenyl protease 2 (Saccharomyces cerevisiae S288c, UniProt Q03530); format: biochemical
T1 sequence (Q03530 whole entry): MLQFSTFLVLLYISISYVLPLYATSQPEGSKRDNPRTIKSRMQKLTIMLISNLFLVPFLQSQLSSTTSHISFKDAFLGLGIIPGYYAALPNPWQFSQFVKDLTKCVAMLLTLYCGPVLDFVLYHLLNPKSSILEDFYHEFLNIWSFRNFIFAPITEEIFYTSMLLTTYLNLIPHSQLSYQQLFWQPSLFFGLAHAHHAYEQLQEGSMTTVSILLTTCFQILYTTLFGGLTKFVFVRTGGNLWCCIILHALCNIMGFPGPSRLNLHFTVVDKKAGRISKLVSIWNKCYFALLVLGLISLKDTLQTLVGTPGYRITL

CAAX prenyl protease 2 [2] = target: T2, CAAX prenyl protease 2 (Homo sapiens, UniProt Q9Y256); assay: human Rce1 protease inhibitors, dose response, biochemical, yeast membranes, quenched-peptide fluorescence, cherry-pick (AID 588849)
T2 sequence (Q9Y256 whole entry): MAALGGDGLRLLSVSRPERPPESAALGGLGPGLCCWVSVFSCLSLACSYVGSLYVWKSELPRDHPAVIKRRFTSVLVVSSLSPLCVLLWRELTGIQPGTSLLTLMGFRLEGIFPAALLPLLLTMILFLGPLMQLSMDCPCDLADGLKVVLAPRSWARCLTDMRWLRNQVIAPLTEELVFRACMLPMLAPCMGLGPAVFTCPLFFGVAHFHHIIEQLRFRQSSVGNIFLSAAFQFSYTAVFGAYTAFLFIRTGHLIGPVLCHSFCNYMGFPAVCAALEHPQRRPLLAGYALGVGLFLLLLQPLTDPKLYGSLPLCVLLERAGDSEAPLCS

[3] = Luminescence Cell-Based Dose Response HTS to Identify Activators of Luciferase Translation or Activity in H4 […] Cells. [Related pubchem assays: 1829 (Project Summary), 1814 (Primary HTS)]; format: functional
H4 = assay: Luminescence Cell-Based Dose Response HTS to Identify Activators of 5'UTR Stem-Loop Driven Prion Protein mRNA Translation in H4 Neuroglioblastoma Cells. [Related pubchem assays: 1829 (Project Summary), 1814 (Primary HTS)]; format: functional; conditions: Homo sapiens
HeLa = assay: HeLa cell cytotoxicity, dose response, cytotoxicity control for MITF activator project, CellTiter-Glo luminescence, cherry-pick samples (AID 540259); format: functional, cell-based; conditions: Homo sapiens
[4] = target: Glucose-6-phosphate 1-dehydrogenase (Homo sapiens, UniProt P11413); assay: human G6PD enzyme inhibitors, dose response, selectivity assay for P. falciparum G6PD inhibitor project, biochemical, fluorescence (AID 504792); format: functional
[5] = target: T3, Short transient receptor potential channel 4 (Mus musculus, UniProt Q9QUQ5); assay: mouse TRPC4 channel activators, dose response, cell-based, HEK293 TRPC4/mu-opioid, Fluo-4 calcium (AID 434937); format: functional
T3 sequence (Q9QUQ5 whole entry): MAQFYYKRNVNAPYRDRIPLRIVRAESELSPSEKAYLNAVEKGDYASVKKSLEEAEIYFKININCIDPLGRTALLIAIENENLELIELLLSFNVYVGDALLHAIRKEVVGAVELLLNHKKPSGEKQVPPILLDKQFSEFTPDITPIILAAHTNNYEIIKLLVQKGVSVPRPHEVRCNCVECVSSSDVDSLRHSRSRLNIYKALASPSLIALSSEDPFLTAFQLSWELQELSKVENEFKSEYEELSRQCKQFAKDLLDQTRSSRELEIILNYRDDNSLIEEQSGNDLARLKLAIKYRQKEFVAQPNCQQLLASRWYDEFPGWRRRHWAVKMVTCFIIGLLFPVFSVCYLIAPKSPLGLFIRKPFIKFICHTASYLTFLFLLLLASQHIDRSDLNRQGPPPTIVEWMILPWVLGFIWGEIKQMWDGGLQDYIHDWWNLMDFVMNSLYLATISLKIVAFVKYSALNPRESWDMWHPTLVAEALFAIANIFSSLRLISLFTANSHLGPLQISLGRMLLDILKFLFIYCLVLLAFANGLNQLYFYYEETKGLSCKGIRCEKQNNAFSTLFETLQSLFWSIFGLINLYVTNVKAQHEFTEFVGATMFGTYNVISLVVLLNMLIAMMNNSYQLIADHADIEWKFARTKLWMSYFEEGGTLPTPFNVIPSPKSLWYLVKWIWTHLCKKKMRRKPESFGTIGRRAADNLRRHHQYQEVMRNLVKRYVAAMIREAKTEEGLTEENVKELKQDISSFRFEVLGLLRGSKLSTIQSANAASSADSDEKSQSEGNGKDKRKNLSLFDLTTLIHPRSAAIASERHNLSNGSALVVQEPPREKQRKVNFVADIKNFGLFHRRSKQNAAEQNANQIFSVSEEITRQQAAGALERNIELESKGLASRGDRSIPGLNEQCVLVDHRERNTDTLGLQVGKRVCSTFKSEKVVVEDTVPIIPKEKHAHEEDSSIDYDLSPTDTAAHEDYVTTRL

Chain of Glucose-6-phosphate 1-dehydrogenase (P11413 whole entry): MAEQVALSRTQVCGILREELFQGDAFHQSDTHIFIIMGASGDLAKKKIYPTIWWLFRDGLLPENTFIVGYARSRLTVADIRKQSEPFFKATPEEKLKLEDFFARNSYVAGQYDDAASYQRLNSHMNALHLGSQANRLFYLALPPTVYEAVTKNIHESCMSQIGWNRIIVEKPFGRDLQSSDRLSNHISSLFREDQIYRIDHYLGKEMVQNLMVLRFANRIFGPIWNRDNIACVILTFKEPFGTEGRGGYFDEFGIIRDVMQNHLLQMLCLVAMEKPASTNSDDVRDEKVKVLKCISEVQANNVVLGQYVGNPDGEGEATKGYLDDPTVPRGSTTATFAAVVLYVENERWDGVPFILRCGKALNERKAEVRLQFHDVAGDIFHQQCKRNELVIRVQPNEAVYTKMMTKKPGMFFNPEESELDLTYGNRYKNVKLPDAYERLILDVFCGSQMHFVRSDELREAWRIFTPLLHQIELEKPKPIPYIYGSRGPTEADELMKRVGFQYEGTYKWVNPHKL
Chain of Trypsin (P00761 whole entry): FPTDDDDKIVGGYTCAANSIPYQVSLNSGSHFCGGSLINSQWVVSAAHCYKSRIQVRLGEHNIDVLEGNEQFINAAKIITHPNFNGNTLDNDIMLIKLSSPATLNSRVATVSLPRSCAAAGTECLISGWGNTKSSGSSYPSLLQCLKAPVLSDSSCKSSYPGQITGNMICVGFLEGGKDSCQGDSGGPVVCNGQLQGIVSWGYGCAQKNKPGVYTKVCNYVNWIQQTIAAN

## CC(C)OCCCNC(=O)c1c(N)n(CC2CCCO2)c2nc3ccccc3nc12 (stereo unspecified)
Trypsin
  AC50: 5.99 µM (active)
CAAX prenyl protease 2 [1]
  AC50: 15 µM (active)
CAAX prenyl protease 2 [2]
  AC50: 9.35 µM (active)

## c1ccc(CSc2ccc(-c3ccc4c(c3)OCO4)nn2)cc1
[3]
  EC50: 4.69 µM (active)
H4
  EC50: > 120 µM (not active)
HeLa
  AC50: 112 µM (active)

## O=C(/C=C/c1cn(-c2ccccc2)nc1-c1cccs1)NCCN1CCOCC1
CAAX prenyl protease 2 [1]
  AC50: 10.8 µM (active)
CAAX prenyl protease 2 [2]
  AC50: > 100 µM (inactive)

## Cc1cccc(C(=O)Nc2nnc(S(=O)(=O)N3CCCCCC3)s2)c1
[4]
  IC50: > 80 µM (inactive)

## CCn1c(CN2CCN(Cc3ccc(C)cc3)C(CCO)C2)nc2ccccc21 (stereo unspecified)
[5]
  EC50: 0.668 µM (active)

## Cc1cccn2c(CNCCc3ccccn3)c(C(=O)N3CCOCC3)nc12
[5]
  EC50: 1.68 µM (active)

## CC(=O)c1ccc(N2Cc3ccccc3/C2=N\C(=O)c2cccs2)cc1
HeLa
  AC50: 76.6 µM (active)

## CCc1cc(OCCN(C)C)ccc1Cl
[5]
  EC50: 0.267 µM (active)

## Oc1ccc(-c2nccc(-c3ccccn3)n2)cc1
HeLa
  AC50: 55.2 µM (active)

## C=CCOc1c(Cl)cc(CNc2ccc(N(C)C)cc2)cc1OC
[4]
  IC50: > 80 µM (inactive)

## CCn1cc(CN2CCCC(C(=O)Nc3ccc(-c4nc5ccccc5[nH]4)cc3)C2)c(C)n1 (stereo unspecified)
[5]
  EC50: 0.267 µM (active)
